From patent US12721853B2, “Applications of CX-5461 in treating immune rejection in renal transplantation” (Sun Yat-sen University, priority 2022, dated 2026)

What was measured:
[1] = test system: IL-6, IL-10 cytokines in serum; test: ELISA of cytokines in serum after renal transplantation; type: in vivo, rat; settings: seventh day after renal transplantation, compared with AR group, ***P<0.001
Excerpt: • (1) Lewis male rats and Brown Norway male rats are purchased from Beijing Vital River Laboratory Animal Technology Co., Ltd., with weight of around 200 g and age of 6-8 weeks old, and the rearing environment is of SPF level. • (2) Establishment of acute rejection model after renal transplantation in rats: the donor of Brown Norway male rats aged 6-8 weeks, about 200 g, is transplanted into Lewis male rats, and the surgical scheme is end-to-end renal vein anastomosis as reported in most literatures. The experimental groups are divided into normal group (Control) of donor rats, acute rejection (AR) group and drug group (CX5461 of 2 mg/kg) with 5 rats each. After successful renal transplantation, the rats are killed at 3 days, 5 days and 7 days after operation, and blood is collected from the lower abdominal aorta by using a 5 mL sterile syringe. […] Subsequently, the concentration and purity of total RNA are measured using a Nanodrop. Using the RNA as a template, reverse transcription is performed by reverse transcription kit of Beijing TransGen Biotech Company to obtain a cDNA template, and quantitative PCR analysis is carried out by using this cDNA as a template and using TransGen qPCR kit according to the instructions and the detection primers shown in Table 1 below. […]

[2] = Survival of rats after renal transplantation; type: in vivo, rat; settings: compared with acute rejection group
Excerpt: (§1) • (1) Lewis male rats and Brown Norway male rats are purchased from Beijing Vital River Laboratory Animal Technology Co., Ltd., with weight of around 200 g and age of 6-8 weeks old, and the rearing environment is of SPF level. • (2) Establishment of acute rejection model after renal transplantation in rats: the donor of Brown Norway male rats aged 6-8 weeks, about 200 g, is transplanted into Lewis male rats, and the surgical scheme is end-to-end renal vein anastomosis as reported in most literatures. The experimental groups are divided into normal group (Control) of donor rats, acute rejection (AR) group and drug group (CX5461 of 2 mg/kg) with 5 rats each. After successful renal transplantation, the rats are killed at 3 days, 5 days and 7 days after operation, and blood is collected from the lower abdominal aorta by using a 5 mL sterile syringe. […] Subsequently, the concentration and purity of total RNA are measured using a Nanodrop. Using the RNA as a template, reverse transcription is performed by reverse transcription kit of Beijing TransGen Biotech Company to obtain a cDNA template, and quantitative PCR analysis is carried out by using this cDNA as a template and using TransGen qPCR kit according to the instructions and the detection primers shown in Table 1 below.

[3] = test system: Pol I-driven rRNA transcription; settings: cited from earlier work
Pol II = settings: cited from earlier work
renal implants = test: Appearance of the kidney graft, acute rejection model after renal transplantation in rats; type: in vivo, rat; settings: seventh day after renal transplantation, CX5461 of 2 mg/kg, compared with acute rejection group (AR)
Excerpt: as §1

[4] = Creatinine and urea nitrogen levels in blood after renal transplantation; type: in vivo, rat
Excerpt: • (1) Lewis male rats and Brown Norway male rats are purchased from Beijing Vital River Laboratory Animal Technology Co., Ltd., with weight of around 200 g and age of 6-8 weeks old, and the rearing environment is of SPF level. • (2) Establishment of acute rejection model after renal transplantation in rats: the donor of Brown Norway male rats aged 6-8 weeks, about 200 g, is transplanted into Lewis male rats, and the surgical scheme is end-to-end renal vein anastomosis as reported in most literatures. The experimental groups are divided into normal group (Control) of donor rats, acute rejection (AR) group and drug group (CX5461 of 2 mg/kg) with 5 rats each. […] The collected blood is placed in a procoagulants tube at room temperature for 1 h, centrifuged at 4000 r/min in a centrifuge at 4° C. for 10 min, and the obtained serum is packaged in an EP tube and frozen at −80° C. for enzyme-linked immunosorbent assay (ELISA) detection. The removed transplanted kidney is cut in half along the longitudinal axis and soaked in 4% paraformaldehyde for pathological reaction verification. • (3) Real-time RT-PCR analysis: RNA is extracted from rat spleen by using Trizol method, and the specific operation is as follows: 1 mL of Trizol is added to the EP tube containing rat spleen and placed in the refrigerator at 4° C. for 10 min; then, porcelain beads are added into it and put into an automatic grinder, and ground at 4° C. for 5 min; 0.2 mL chloroform (i.e., ⅕ Trizol volume) is added into the EP tube, followed by shaking vigorously for about 20 times, then centrifuging at 12,500 rpm at 4° C. for 15 min; the obtained upper aqueous phase is placed in a new EP tube and carefully aspirated about 3 times with a 200 μL gun tip, and approximately an equal volume of isopropanol (i.e., 600 μL) is added, and the RNA is precipitated by centrifugation at 12,500 rpm for 15 min at 4° C., at which time a white RNA precipitate is seen. Then, 1 ml of 75% ethanol is added for washing twice, followed by centrifugation at 12500 rpm and 4° C. for 5 min. The supernatant is discarded and the precipitated RNA is allowed to dry naturally in an ultra-clean bench. RNA is obtained by dissolving the RNA precipitate with 100 μL of Rnase-free water. Subsequently, the concentration and purity of total RNA are measured using a Nanodrop. Using the RNA as a template, reverse transcription is performed by reverse transcription kit of Beijing TransGen Biotech Company to obtain a cDNA template, and quantitative PCR analysis is carried out by using this cDNA as a template and using TransGen qPCR kit according to the instructions and the detection primers shown in Table 1 below.

transplanted kidney = test: H&E staining and immunohistochemical staining (anti-IL-17A) of transplanted kidney; type: in vivo, rat; settings: seventh day after renal transplantation
Treg cells in the spleen = test: CD4+CD25+Foxp3+ flow cytometry of spleen; type: in vivo, rat; settings: seventh day after renal transplantation
[5] = test system: IL-6, IL-10, IL-17A cytokines in spleen; test: Real-time RT-PCR of cytokines in spleen after renal transplantation; type: in vivo, rat; settings: seventh day after renal transplantation, compared with AR group, ***P<0.001
Excerpt: • (1) Lewis male rats and Brown Norway male rats are purchased from Beijing Vital River Laboratory Animal Technology Co., Ltd., with weight of around 200 g and age of 6-8 weeks old, and the rearing environment is of SPF level. • (2) Establishment of acute rejection model after renal transplantation in rats: the donor of Brown Norway male rats aged 6-8 weeks, about 200 g, is transplanted into Lewis male rats, and the surgical scheme is end-to-end renal vein anastomosis as reported in most literatures. The experimental groups are divided into normal group (Control) of donor rats, acute rejection (AR) group and drug group (CX5461 of 2 mg/kg) with 5 rats each. After successful renal transplantation, the rats are killed at 3 days, 5 days and 7 days after operation, and blood is collected from the lower abdominal aorta by using a 5 mL sterile syringe. The collected blood is placed in a procoagulants tube at room temperature for 1 h, centrifuged at 4000 r/min in a centrifuge at 4° C. for 10 min, and the obtained serum is packaged in an EP tube and frozen at −80° C. for enzyme-linked immunosorbent assay (ELISA) detection. […] Subsequently, the concentration and purity of total RNA are measured using a Nanodrop. Using the RNA as a template, reverse transcription is performed by reverse transcription kit of Beijing TransGen Biotech Company to obtain a cDNA template, and quantitative PCR analysis is carried out by using this cDNA as a template and using TransGen qPCR kit according to the instructions and the detection primers shown in Table 1 below.

[6] = third, fifth and seventh day after renal transplantation, AR group continues to increase
[7] = within 42 days after renal transplantation

Cc1cnc(CNC(=O)c2c(=O)c3ccc(N4CCCN(C)CC4)nc3n3c2sc2ccccc23)cn1 [CX-5461]
IL-6 cytokine in serum [1]: significantly down-regulated
IL-10 cytokine in serum [1]: up-regulated
survival time of rats after renal transplantation [2]: significantly longer
IC50 ([3]; HCT-116, A375, and MIA PaCa-2 cells, read-out: IC50, inhibition of Pol I-driven rRNA transcription): 142 nM
selectivity of rRNA transcription inhibition over DNA replication and protein translation [3]: 250- to 300 fold
effect on Pol II (Pol II): no effect
inflammatory immune infiltration, appearance of the kidney graft (renal implants): no obvious inflammatory immune infiltration
renal fibrosis, appearance of the kidney graft (renal implants): less renal fibrosis
creatinine level [4, 6]: remain at a low level
urea nitrogen level [4, 6]: remain at a low level
creatinine level [4, 7]: remain at a relatively low level
urea nitrogen level [4, 7]: remain at a relatively low level
IL-17A cytokine in kidney transplant (immunohistochemistry) (transplanted kidney): reducing the levels of IL-17A cytokine
changes in renal tubules (H&E staining) (transplanted kidney): no obvious changes in renal tubules
glomerulus shrinkage (H&E staining) (transplanted kidney): no obvious shrinkage
infiltration of inflammatory cells (staining) (transplanted kidney): no obvious infiltration of inflammatory cells
renal fibrosis (staining) (transplanted kidney): reduced renal fibrosis
proportion of Treg cells (CD4+CD25+Foxp3+) in the spleen (Treg cells in the spleen): obviously increased
IL-6 cytokine in spleen [5]: significantly down-regulated
IL-10 cytokine in spleen [5]: significantly up-regulated
IL-17A cytokine in spleen [5]: significantly down-regulated
